± gives the expanded uncertainty stated by the source.
Settings: 101 kPa, Liquid, Pendant drop method

Row | SMILES | interfacial tension (293 K) [mN/m] | interfacial tension (298 K) [mN/m] | interfacial tension (303 K) [mN/m] | interfacial tension (308 K) [mN/m] | interfacial tension (313 K) [mN/m] | interfacial tension (318 K) [mN/m] | interfacial tension (323 K) [mN/m]
1 | CCCCCCCCn1cc[n+](C)c1.O=S(=O)([N-]S(=O)(=O)C(F)(F)F)C(F)(F)F + CCCCCC | 3.12 ± 0.11 | 3.07 ± 0.11 | 3.02 ± 0.11 | 2.95 ± 0.11 | 2.88 ± 0.11 |  | 
2 | CCCCCC[n+]1ccn(C)c1.O=S(=O)([N-]S(=O)(=O)C(F)(F)F)C(F)(F)F + CCCCCC | 5.19 ± 0.14 | 5.1 ± 0.13 | 4.99 ± 0.13 | 4.88 ± 0.13 | 4.79 ± 0.13 |  | 
3 | CCCC[n+]1ccn(C)c1.O=S(=O)([N-]S(=O)(=O)C(F)(F)F)C(F)(F)F + CCCCCC | 7.78 ± 0.17 | 7.64 ± 0.17 | 7.5 ± 0.17 | 7.37 ± 0.16 | 7.24 ± 0.16 |  | 
4 | CCn1cc[n+](C)c1.O=S(=O)([N-]S(=O)(=O)C(F)(F)F)C(F)(F)F + CCCCCC | 11.36 ± 0.22 | 11.23 ± 0.22 | 11.12 ± 0.22 | 10.98 ± 0.22 | 10.82 ± 0.21 |  | 
5 | CCCCCCCCn1cc[n+](C)c1.O=S(=O)([N-]S(=O)(=O)C(F)(F)F)C(F)(F)F + CCCCCCCC | 3.76 ± 0.1 | 3.69 ± 0.1 | 3.6 ± 0.1 | 3.49 ± 0.1 | 3.38 ± 0.1 |  | 
6 | CCCCCC[n+]1ccn(C)c1.O=S(=O)([N-]S(=O)(=O)C(F)(F)F)C(F)(F)F + CCCCCCCC | 5.79 ± 0.11 | 5.66 ± 0.11 | 5.5 ± 0.11 | 5.36 ± 0.11 | 5.24 ± 0.11 |  | 
7 | CCCC[n+]1ccn(C)c1.O=S(=O)([N-]S(=O)(=O)C(F)(F)F)C(F)(F)F + CCCCCCCC | 8.78 ± 0.11 | 8.6 ± 0.11 | 8.43 ± 0.11 | 8.25 ± 0.11 | 8.1 ± 0.11 |  | 
8 | CCn1cc[n+](C)c1.O=S(=O)([N-]S(=O)(=O)C(F)(F)F)C(F)(F)F + CCCCCCCC | 12.23 ± 0.13 | 12.1 ± 0.13 | 11.84 ± 0.12 | 11.7 ± 0.12 | 11.43 ± 0.12 |  | 
9 | CCCCCCCCn1cc[n+](C)c1.O=S(=O)([N-]S(=O)(=O)C(F)(F)F)C(F)(F)F + CCCCCCCCCC | 3.98 ± 0.1 | 3.88 ± 0.1 | 3.76 ± 0.1 | 3.63 ± 0.1 | 3.51 ± 0.1 |  | 
10 | CCCCCC[n+]1ccn(C)c1.O=S(=O)([N-]S(=O)(=O)C(F)(F)F)C(F)(F)F + CCCCCCCCCC | 6.59 ± 0.11 | 6.47 ± 0.11 | 6.36 ± 0.11 | 6.24 ± 0.11 | 6.11 ± 0.11 |  | 
11 | CCCC[n+]1ccn(C)c1.O=S(=O)([N-]S(=O)(=O)C(F)(F)F)C(F)(F)F + CCCCCCCCCC | 9.43 ± 0.12 | 9.33 ± 0.12 | 9.21 ± 0.12 | 9.1 ± 0.12 | 8.99 ± 0.12 |  | 
12 | CCn1cc[n+](C)c1.O=S(=O)([N-]S(=O)(=O)C(F)(F)F)C(F)(F)F + CCCCCCCCCC | 12.87 ± 0.14 | 12.75 ± 0.14 | 12.64 ± 0.14 | 12.52 ± 0.14 | 12.41 ± 0.14 |  | 
13 | CCCCCCCCCCn1cc[n+](C)c1.O=S(=O)([N-]S(=O)(=O)C(F)(F)F)C(F)(F)F + O | 17.71 ± 0.14 | 17.41 ± 0.14 | 17.09 ± 0.14 | 16.75 ± 0.13 | 16.41 ± 0.13 | 16.05 ± 0.13 | 15.66 ± 0.13
14 | CCCCCCCCn1cc[n+](C)c1.O=S(=O)([N-]S(=O)(=O)C(F)(F)F)C(F)(F)F + O | 16.47 ± 0.14 | 15.79 ± 0.13 | 15.67 ± 0.13 | 15.37 ± 0.13 | 15.06 ± 0.13 | 14.61 ± 0.13 | 14.44 ± 0.13
15 | CCCCCC[n+]1ccn(C)c1.O=S(=O)([N-]S(=O)(=O)C(F)(F)F)C(F)(F)F + O | 15.39 ± 0.13 | 14.82 ± 0.13 | 14.49 ± 0.13 | 14.17 ± 0.13 | 14.01 ± 0.12 | 13.78 ± 0.12 | 13.45 ± 0.12
16 | CCCC[n+]1ccn(C)c1.O=S(=O)([N-]S(=O)(=O)C(F)(F)F)C(F)(F)F + O | 13.69 ± 0.12 | 13.2 ± 0.12 | 12.57 ± 0.12 | 12.31 ± 0.12 | 11.62 ± 0.12 | 11.4 ± 0.12 | 11.07 ± 0.12
17 | CCn1cc[n+](C)c1.O=S(=O)([N-]S(=O)(=O)C(F)(F)F)C(F)(F)F + O | 10.04 ± 0.11 | 9.85 ± 0.11 | 9.51 ± 0.11 | 9.29 ± 0.11 | 9.05 ± 0.11 | 8.79 ± 0.11 | 8.61 ± 0.11
18 | Cn1cc[n+](C)c1.O=S(=O)([N-]S(=O)(=O)C(F)(F)F)C(F)(F)F [1,3-dimethylimidazolium bis((trifluoromethyl)sulfonyl)amide] + O |  | 8.05 ± 0.11 | 7.83 ± 0.11 | 7.49 ± 0.11 | 7.14 ± 0.11 | 6.82 ± 0.11 | 6.52 ± 0.11
19 | CCCCn1cc[n+](C)c1.O=C([O-])C(F)(F)F [1-butyl-3-methylimidazolium trifluoroacetate] + CCCCCC | 8.74 ± 0.18 | 8.58 ± 0.18 | 8.43 ± 0.18 | 8.29 ± 0.18 | 8.16 ± 0.17 |  | 
20 | CCCCn1cc[n+](C)c1.O=C([O-])C(F)(F)F [1-butyl-3-methylimidazolium trifluoroacetate] + CCCCCCCC | 9.38 ± 0.12 | 9.29 ± 0.12 | 9.21 ± 0.12 | 9.11 ± 0.12 | 8.98 ± 0.11 |  | 
21 | CCCCn1cc[n+](C)c1.O=C([O-])C(F)(F)F [1-butyl-3-methylimidazolium trifluoroacetate] + CCCCCCCCCC | 10.52 ± 0.13 | 10.41 ± 0.13 | 10.29 ± 0.13 | 10.16 ± 0.13 | 10.04 ± 0.13 |  | 
22 | CCCCn1cc[n+](C)c1.O=S(=O)([O-])C(F)(F)F [1-butyl-3-methylimidazolium trifluoromethanesulfonate] + CCCCCC | 9.07 ± 0.19 | 8.9 ± 0.19 | 8.74 ± 0.18 | 8.58 ± 0.18 | 8.43 ± 0.18 |  | 
23 | CCCCn1cc[n+](C)c1.O=S(=O)([O-])C(F)(F)F [1-butyl-3-methylimidazolium trifluoromethanesulfonate] + CCCCCCCC | 9.96 ± 0.12 | 9.88 ± 0.12 | 9.79 ± 0.12 | 9.7 ± 0.12 | 9.59 ± 0.12 |  | 
24 | CCCCn1cc[n+](C)c1.O=S(=O)([O-])C(F)(F)F [1-butyl-3-methylimidazolium trifluoromethanesulfonate] + CCCCCCCCCC | 10.79 ± 0.13 | 10.67 ± 0.13 | 10.56 ± 0.13 | 10.44 ± 0.13 | 10.31 ± 0.13 |  | 
